Results taken from US6362369B1, “Phthalic acid diamide derivatives fluorine-containing aniline compounds as starting material, agricultural and horticultural insecticides, and a method for application of the insecticides” (Nihon Nohyaku Co., Ltd., priority 1997, dated 2002).

Tests used:
Format in all cases: in vivo
[1] = system: diamondback moth (Plutella xylostella); test: Insecticidal effect on diamondback moth (Test Example 1); settings: for Insecticidal effect (Test Example 1), judged from mortality / Insecticidal effect, Test Example 1: diamondback moth; for Insecticidal effect (Test Example 1), judged from mortality: judged by the criterion of Test Example 1; for Insecticidal effect on diamondback moth (Test Example 1), judged grade: mortality judged according to the criterion shown in Test Example 1
Method in brief: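 Oviposition by adults on Chinese cabbage seedling; immersion; air-dry; 25° C room. Count of hatched larvae at day 6 post-immersion → mortality → effect graded by criterion. Triplicate, 10 insects/group.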

[2] = system: common cutworm (Spodoptera Litura); test: Insecticidal effect on common cutworm (Test Example 2); settings: 500 ppm, 25° C.; for Insecticidal effect (Test Example 2), judged from mortality / Insecticidal effect on common cutworm (Test Example 2), judged grade: cabbage leaf dip; for Insecticidal effect (Test Example 2), judged from mortality: 8 days after inoculation; for Insecticidal effect, Test Example 2: cabbage leaf immersed; for Insecticidal effect, Test Example 2 / Insecticidal effect on common cutworm (Test Example 2), judged grade: eight days after inoculation; for Insecticidal effect on common cutworm (Test Example 2), judged grade: second-instar larvae
Method in brief: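 Air-dried treated material was placed in a closed dish with second-instar larvae and held at 25° C. Dead and live insects were counted eight days after inoculation, and mortality was calculated and scored against a fixed insecticidal-effect criterion. Three replicate groups of 10 insects were used.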

[3] = system: rice leafroller (Cnaphalocrocis medinalis); test: Insecticidal effect on rice leafroller (Test Example 3); settings: 500 ppm, 25° C., humidity 70%; for Insecticidal effect (Test Example 3), judged from mortality / Insecticidal effect on rice leafroller (Test Example 3), judged grade: rice lamina dip; for Insecticidal effect (Test Example 3), judged from mortality: 4 days after inoculation; for Insecticidal effect, Test Example 3: rice lamina immersed; for Insecticidal effect, Test Example 3 / Insecticidal effect on rice leafroller (Test Example 3), judged grade: four days after inoculation; for Insecticidal effect on rice leafroller (Test Example 3), judged grade: third-instar larvae
Method in brief: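 Insecticidal effect is judged by a predefined criterion from dead/alive counts four days after infesting air-dried lamina with third-instar larvae, kept on moistened filter paper at 25° C, 70% humidity.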

[4] = second-instar larvae of common cutworm
[5] = third-instar larvae of rice leafroller
[6] = judged by the mortality criterion of Test Example 1
[7] = mortality judged by criterion of Test Example 1
[8] = common cutworm second-instar larvae
[9] = rice leafroller third-instar larvae

## CCN(CC)C(=O)c1c(F)cccc1C(=O)Nc1ccc(Cl)cc1C [compound 1546]
[1]
  Insecticidal effect (Test Example 1), judged from mortality: A (100)
[2]; [4]
  Insecticidal effect (Test Example 2), judged from mortality: C (89-80)
[3]; [5]
  Insecticidal effect (Test Example 3), judged from mortality: A (100)

## CC(C)NC(=O)c1cccc(Br)c1C(=O)Nc1ccc(OC(F)(F)F)cc1Cl [compound 323]
[1]; [6]
  Insecticidal effect, Test Example 1: A (100)
[2]; [4]
  Insecticidal effect, Test Example 2: C (89-80)
[3]; [5]
  Insecticidal effect, Test Example 3: A (100)

## Cc1cc(OC(F)F)ccc1NC(=O)c1c(Cl)cccc1C(=O)NC(C)C [compound 236]
[1]; [6]
  Insecticidal effect, Test Example 1: A (100)
[2]; [4]
  Insecticidal effect, Test Example 2: A (100)
[3]; [5]
  Insecticidal effect, Test Example 3: A (100)

## CC(C)(C)NC(=O)c1c(Cl)cccc1C(=O)Nc1ccc(C(F)(F)C(F)(F)C(F)(F)F)cc1F [compound 1496]
[1]
  Insecticidal effect (Test Example 1), judged from mortality: A (100)
[2]; [4]
  Insecticidal effect (Test Example 2), judged from mortality: A (100)
[3]; [5]
  Insecticidal effect (Test Example 3), judged from mortality: A (100)

## Cc1cc(OC(F)(F)C(F)OC(F)(F)F)ccc1NC(=O)c1cccc(Cl)c1C(=O)NC(C)C (stereo not drawn) [compound 149]
[1]; [6]
  Insecticidal effect, Test Example 1: A (100)
[2]; [4]
  Insecticidal effect, Test Example 2: A (100)
[3]; [5]
  Insecticidal effect, Test Example 3: A (100)

## Cc1cc(OC(F)(F)C(F)C(F)(F)F)ccc1NC(=O)c1c(F)cccc1C(=O)NC(C)C (stereo not drawn) [compound 568]
[1]
  Insecticidal effect on diamondback moth (Test Example 1), judged grade: A (100)
[2]
  Insecticidal effect on common cutworm (Test Example 2), judged grade: C (89-80)
[3]
  Insecticidal effect on rice leafroller (Test Example 3), judged grade: A (100)

## CC(C)NC(=O)c1c(I)cccc1C(=O)Nc1ccc(Cl)cc1 [compound 345]
[1]; [6]
  Insecticidal effect, Test Example 1: A (100)
[2]; [4]
  Insecticidal effect, Test Example 2: B (99-90)
[3]; [5]
  Insecticidal effect, Test Example 3: A (100)

## CCc1cc(C(F)(F)C(F)(F)F)ccc1NC(=O)c1cccc(I)c1C(=O)N(CC)CC [compound 1559]
[1]
  Insecticidal effect (Test Example 1), judged from mortality: A (100)
[2]; [4]
  Insecticidal effect (Test Example 2), judged from mortality: A (100)
[3]; [5]
  Insecticidal effect (Test Example 3), judged from mortality: A (100)

## Cc1cc(C(F)(F)C(F)(F)F)ccc1NC(=O)c1cccc(I)c1C(=O)NCc1ccccc1Cl [compound 1402]
[1]; [7]
  Insecticidal effect, Test Example 1: A (100)
[2]; [8]
  Insecticidal effect, Test Example 2: A (100)
[3]; [9]
  Insecticidal effect, Test Example 3: A (100)

## COCCCNC(=O)c1c(I)cccc1C(=O)Nc1ccc(C(F)(F)C(F)(F)F)cc1C [compound 985]
[1]; [7]
  Insecticidal effect, Test Example 1: A (100)
[2]; [8]
  Insecticidal effect, Test Example 2: A (100)
[3]; [9]
  Insecticidal effect, Test Example 3: A (100)

## Cc1cc(OC(F)(F)C(F)Cl)ccc1NC(=O)c1c(I)cccc1C(=O)NC(C)C (stereo not drawn) [compound 455]
[1]
  Insecticidal effect on diamondback moth (Test Example 1), judged grade: A (100)
[2]
  Insecticidal effect on common cutworm (Test Example 2), judged grade: B (99-90)
[3]
  Insecticidal effect on rice leafroller (Test Example 3), judged grade: A (100)

## CC(C)NC(=O)c1c(I)cccc1C(=O)Nc1ccc(OC(F)F)c(C(F)(F)F)c1 [compound 410]
[1]; [6]
  Insecticidal effect, Test Example 1: A (100)
[2]; [4]
  Insecticidal effect, Test Example 2: A (100)
[3]; [5]
  Insecticidal effect, Test Example 3: A (100)

## CC(C)NC(=O)c1c(Cl)cccc1C(=O)Nc1ccc(C(F)(F)C(F)(F)C(F)(F)F)cc1 [compound 90]
[1]; [6]
  Insecticidal effect, Test Example 1: A (100)
[2]; [4]
  Insecticidal effect, Test Example 2: A (100)
[3]; [5]
  Insecticidal effect, Test Example 3: B (99-90)

## CC(C)NC(=O)c1cccc(Cl)c1C(=O)Nc1ccc(C(F)(C(F)(F)F)C(F)(F)F)cc1 [compound 198]
[1]; [6]
  Insecticidal effect, Test Example 1: A (100)
[2]; [4]
  Insecticidal effect, Test Example 2: C (89-80)
[3]; [5]
  Insecticidal effect, Test Example 3: A (100)

## CC(C)NC(=O)c1c(I)cccc1C(=O)Nc1ccc2c(c1Cl)OC(F)C(F)(F)O2 (racemic) [compound 1680]
[1]
  Insecticidal effect (Test Example 1), judged from mortality: A (100)
[2]; [4]
  Insecticidal effect (Test Example 2), judged from mortality: A (100)
[3]; [5]
  Insecticidal effect (Test Example 3), judged from mortality: A (100)

## CC(C)NC(=O)c1cccc(I)c1C(=O)Nc1ccc(SC(F)F)cc1 [compound 421]
[1]; [6]
  Insecticidal effect, Test Example 1: A (100)
[2]; [4]
  Insecticidal effect, Test Example 2: B (99-90)
[3]; [5]
  Insecticidal effect, Test Example 3: A (100)

## Cc1cc(OC(F)(F)C(F)F)ccc1NC(=O)c1ccccc1C(=O)NC(C)C [compound 60]
[1]; [6]
  Insecticidal effect, Test Example 1: A (100)
[2]; [4]
  Insecticidal effect, Test Example 2: A (100)
[3]; [5]
  Insecticidal effect, Test Example 3: A (100)

## Cc1cc(OC(F)F)ccc1NC(=O)c1cccc(S(C)(=O)=O)c1C(=O)NC(C)C [compound 795]
[1]
  Insecticidal effect on diamondback moth (Test Example 1), judged grade: A (100)
[2]
  Insecticidal effect on common cutworm (Test Example 2), judged grade: B (99-90)
[3]
  Insecticidal effect on rice leafroller (Test Example 3), judged grade: A (100)

## Cc1cc(C(F)(C(F)(F)F)C(F)(F)F)ccc1NC(=O)c1ccccc1C(=O)NC(C)(C)C [compound 1037]
[1]; [7]
  Insecticidal effect, Test Example 1: A (100)
[2]; [8]
  Insecticidal effect, Test Example 2: A (100)
[3]; [9]
  Insecticidal effect, Test Example 3: A (100)

## CC(C)NC(=O)c1c(I)cccc1C(=O)Nc1ccc(C(O)(C(F)(F)F)C(F)(F)F)cc1 [compound 1004]
[1]; [7]
  Insecticidal effect, Test Example 1: A (100)
[2]; [8]
  Insecticidal effect, Test Example 2: A (100)
[3]; [9]
  Insecticidal effect, Test Example 3: A (100)

## CCN(CC)C(=O)c1c(I)cccc1C(=O)Nc1ccc(Cl)cc1C [compound 1557]
[1]
  Insecticidal effect (Test Example 1), judged from mortality: A (100)
[2]; [4]
  Insecticidal effect (Test Example 2), judged from mortality: A (100)
[3]; [5]
  Insecticidal effect (Test Example 3), judged from mortality: A (100)

## CC(C)NC(=O)c1ccccc1C(=O)Nc1ccc(C(O)(C(F)(F)F)C(F)(F)F)cc1 [compound 978]
[1]; [7]
  Insecticidal effect, Test Example 1: A (100)
[2]; [8]
  Insecticidal effect, Test Example 2: C (89-80)
[3]; [9]
  Insecticidal effect, Test Example 3: A (100)

## CC(C)NC(=O)c1c(F)cccc1C(=O)Nc1ccc(C(F)(C(F)(F)F)C(F)(F)F)cc1 [compound 474]
[1]
  Insecticidal effect on diamondback moth (Test Example 1), judged grade: A (100)
[2]
  Insecticidal effect on common cutworm (Test Example 2), judged grade: B (99-90)
[3]
  Insecticidal effect on rice leafroller (Test Example 3), judged grade: A (100)

## Cc1cc(OC(F)(F)C(F)F)ccc1NC(=O)c1cccc(Br)c1C(=O)NC(C)C [compound 293]
[1]; [6]
  Insecticidal effect, Test Example 1: A (100)
[2]; [4]
  Insecticidal effect, Test Example 2: A (100)
[3]; [5]
  Insecticidal effect, Test Example 3: A (100)

## Cc1cc(OC(F)(F)C(F)OC(F)(F)F)ccc1NC(=O)c1c(I)cccc1C(=O)NC(C)C (stereo not drawn) [compound 457]
[1]
  Insecticidal effect on diamondback moth (Test Example 1), judged grade: A (100)
[2]
  Insecticidal effect on common cutworm (Test Example 2), judged grade: A (100)
[3]
  Insecticidal effect on rice leafroller (Test Example 3), judged grade: B (99-90)

## Cc1cc(OC(F)(F)C(F)Cl)ccc1NC(=O)c1c(Br)cccc1C(=O)NC(C)C (stereo not drawn) [compound 329]
[1]; [6]
  Insecticidal effect, Test Example 1: A (100)
[2]; [4]
  Insecticidal effect, Test Example 2: A (100)
[3]; [5]
  Insecticidal effect, Test Example 3: A (100)

## CCN(CC)C(=O)c1c(Cl)cccc1C(=O)Nc1ccc(OC(F)F)cc1C [compound 1538]
[1]
  Insecticidal effect (Test Example 1), judged from mortality: A (100)
[2]; [4]
  Insecticidal effect (Test Example 2), judged from mortality: A (100)
[3]; [5]
  Insecticidal effect (Test Example 3), judged from mortality: A (100)

## CC(C)NC(=O)c1c(F)cccc1C(=O)Nc1ccc(OC(F)F)cc1C(F)(F)F [compound 527]
[1]
  Insecticidal effect on diamondback moth (Test Example 1), judged grade: A (100)
[2]
  Insecticidal effect on common cutworm (Test Example 2), judged grade: A (100)
[3]
  Insecticidal effect on rice leafroller (Test Example 3), judged grade: A (100)

## CCNC(=O)c1cccc(I)c1C(=O)Nc1ccc(C(F)(C(F)(F)F)C(F)(F)F)cc1C [compound 1074]
[1]; [7]
  Insecticidal effect, Test Example 1: A (100)
[2]; [8]
  Insecticidal effect, Test Example 2: A (100)
[3]; [9]
  Insecticidal effect, Test Example 3: A (100)

## Cc1cc(I)ccc1NC(=O)c1cccc(Cl)c1C(=O)NC(C)C [compound 122]
[1]; [6]
  Insecticidal effect, Test Example 1: A (100)
[2]; [4]
  Insecticidal effect, Test Example 2: A (100)
[3]; [5]
  Insecticidal effect, Test Example 3: A (100)

## CCN(C(=O)c1c(I)cccc1C(=O)Nc1ccc(OC(F)(F)F)cc1)C(C)C [compound 1160]
[1]; [7]
  Insecticidal effect, Test Example 1: A (100)
[2]; [8]
  Insecticidal effect, Test Example 2: A (100)
[3]; [9]
  Insecticidal effect, Test Example 3: A (100)

## CCN(CC)C(=O)c1c(I)cccc1C(=O)Nc1ccc(-c2ccc(F)cc2)cc1C [compound 1614]
[1]
  Insecticidal effect (Test Example 1), judged from mortality: A (100)
[2]; [4]
  Insecticidal effect (Test Example 2), judged from mortality: C (89-80)
[3]; [5]
  Insecticidal effect (Test Example 3), judged from mortality: A (100)

## Cc1c(Cl)cccc1NC(=O)c1cccc(Br)c1C(=O)NC(C)C [compound 266]
[1]; [6]
  Insecticidal effect, Test Example 1: A (100)
[2]; [4]
  Insecticidal effect, Test Example 2: A (100)
[3]; [5]
  Insecticidal effect, Test Example 3: A (100)

## Cc1cc(OC(F)F)ccc1NC(=O)c1ccc(Cl)cc1C(=O)NC(C)C [compound 180]
[1]; [6]
  Insecticidal effect, Test Example 1: A (100)
[2]; [4]
  Insecticidal effect, Test Example 2: A (100)
[3]; [5]
  Insecticidal effect, Test Example 3: A (100)

## Cc1cc(C(F)(F)C(F)(F)F)ccc1NC(=O)c1cccc(I)c1C(=O)NCCC(C)C [compound 1015]
[1]; [7]
  Insecticidal effect, Test Example 1: A (100)
[2]; [8]
  Insecticidal effect, Test Example 2: D (79-50)
[3]; [9]
  Insecticidal effect, Test Example 3: A (100)

## CCN(CC)C(=O)c1c(Cl)cccc1C(=O)Nc1ccc(OC(F)(F)F)cc1 [compound 1544]
[1]
  Insecticidal effect (Test Example 1), judged from mortality: A (100)
[2]; [4]
  Insecticidal effect (Test Example 2), judged from mortality: A (100)
[3]; [5]
  Insecticidal effect (Test Example 3), judged from mortality: A (100)
